Measured values as given in US5089623A, “Certain imidate insecticides” (Imperial Chemical Industries Plc, priority 1990, dated 1992).

What was measured:
Format in all cases: in vivo
[1] = system: Cabbage Looper [Trichoplusia ni (Hubner)]; test: Cabbage looper test (CL); conditions: second-instar larvae, 3-5 days, percent in solution
[2] = system: Maize weevil [Sitophilus Zeamais (Motschulsky)]; test: Maize weevil test (MW); conditions: adult weevils, treated corn seeds, 48 hours, percent in solution
Description: The compounds in Tables 1 and 2 above were tested for insecticidal activity using the following testing procedures. LC50 values, based on the results of these tests and calculated according to dosage-mortality curves, are expressed in Table 3.
Maize weevil [Sitophilus Zeamais (Motschulsky)]
Test compounds were diluted in a 50:50 acetone:water solution. Four corn seeds [Zea mays (L.)] which had been immersed in test solutions for 2-3 seconds and allowed to dry were placed in containers together with 10 adult weevils. The containers were covered and kept at a temperature of about 25° C. Mortality was recorded after 48 hours. Test concentrations ranged from 0.01% down to that at which 50% mortalilty occurred. The LC50 values are expressed below in Table 3 under the heading "MW" in terms of percent of the test compound in solution.

[3] = system: Housefly [Musca domestica]; test: Housefly insecticidal test (HF); conditions: per 25 female houseflies, 48 hours
[4] = system: Tobacco Budworm [Heliothis virescens (Fabricius)] eggs; test: Tobacco budworm egg test (TBW-E); conditions: percent in solution

SMILES	LC50 CL [1]	LC50 MW [2]	LC50 HF [3]	LC50 TBW E [4]
CC(C)C(=Nc1ccc(F)c(Br)c1)OCc1cccc(Oc2ccc(Cl)cc2)c1 [Compound 398]	< 0.1%	> 0.01%	< 100 µg	< 0.1%
Cc1cc(N=C(OCc2ccc(F)c(Oc3ccc(Cl)cc3)c2)C(C)C)ccc1F [Compound 399]	0.0012%	> 0.01%	< 100 µg	0.025%
Cc1cc(N=C(OCc2ccc(F)c(Oc3ccccc3)c2)C(C)C)ccc1F [Compound 400]	0.0007%	> 0.01%	< 100 µg	0.025%
Cc1cccc(N=C(OCc2ccc(F)c(Oc3ccc(Cl)cc3)c2)C(C)C)c1 [Compound 401]	0.0017%	> 0.01%	< 100 µg	0.04%
Cc1ccc(N=C(OCc2cccc(Oc3ccc(F)cc3)c2)C(C)C)cc1Cl [Compound 402]	> 0.1%	> 0.01%	< 100 µg	> 0.1%
Cc1ccc(N=C(OCc2cccc(Oc3ccc(Cl)cc3)c2)C(C)C)cc1Cl [Compound 403]	> 0.1%	> 0.01%	< 100 µg	> 0.1%
Cc1ccc(N=C(OCc2ccc(F)c(Oc3ccc(Cl)cc3)c2)C(C)C)cc1Cl [Compound 404]	> 0.1%	> 0.01%	< 100 µg	0.025%
Cc1cccc(N=C(OCc2cccc(Oc3ccc(F)cc3)c2)C(C)C)c1 [Compound 405]	> 0.1%	> 0.01%	< 100 µg	> 0.1%
Cc1ccc(N=C(OCc2ccc(F)c(Oc3ccc(Cl)cc3)c2)C(C)C)cc1C [Compound 406]	> 0.1%	> 0.01%	< 100 µg	< 0.1%
Cc1cc(N=C(OCc2ccc(F)c(Oc3ccc(Cl)cc3)c2)C(C)C)ccc1Br [Compound 407]	> 0.1%	> 0.01%	> 100 µg	0.05%
COc1ccc(N=C(OCc2ccc(F)c(Oc3ccc(F)cc3)c2)C(C)C)cc1Cl [Compound 408]	0.0015%	> 0.01%	< 100 µg	0.02%
COc1ccc(N=C(OCc2ccc(F)c(Oc3ccccc3)c2)C(C)C)cc1Cl [Compound 409]	0.0017%	> 0.01%	< 100 µg	0.025%
COc1ccc(N=C(OCc2ccc(F)c(Oc3ccc(Cl)cc3)c2)C(C)C)cc1Cl [Compound 410]	> 0.1%	> 0.01%	< 100 µg	> 0.1%
CCc1ccccc1N=C(OCc1cccc(Oc2ccc(F)cc2)c1)C(C)C [Compound 411]	> 0.1%	> 0.01%	< 100 µg	> 0.1%
COc1ccc(N=C(OCc2ccc(F)c(Oc3ccc(Cl)cc3)c2)C(C)C)cc1 [Compound 412]	> 0.1%	> 0.01%	< 100 µg	> 0.1%
CC(C)C(=Nc1ccc(F)c(I)c1)OCc1cccc(Oc2ccc(Cl)cc2)c1 [Compound 413]	0.0007%	> 0.01%	< 100 µg	0.04%
CC(C)C(=Nc1ccc(S(C)(=O)=O)cc1)OCc1ccc(F)c(Oc2ccc(F)cc2)c1 [Compound 414]	0.0024%	> 0.01%	< 100 µg	> 0.1%
C=C(C)C(=Nc1ccc(F)c(Cl)c1)OCc1ccc(F)c(Oc2ccc(Cl)cc2)c1 [Compound 415]	0.00075%	> 0.01%	< 100 µg	0.035%
C=C(C)C(=Nc1ccc(F)c(Cl)c1)OCc1ccc(F)c(Oc2ccccc2)c1 [Compound 416]	0.00027%	> 0.01%	< 100 µg	0.018%
C=C(C)C(=Nc1ccc(F)c(Cl)c1)OCc1cccc(Oc2ccccc2)c1 [Compound 417]	0.0008%	< 0.01%	< 100 µg	0.04%
CC(C)C(=Nc1ccc(OC(F)(F)C(F)Cl)cc1)OCc1cccc(Oc2ccccc2)c1 (centres unmarked) [Compound 418]	> 0.1%	> 0.01%	> 100 µg	> 0.1%

SMILES	LC50 CL [1]	LC50 MW [2]	LC50 HF [3]	LC50 TBW E [4]
CC(C)C(=Nc1ccc(OC(F)(F)C(F)Cl)cc1)OCc1ccc(F)c(Oc2ccccc2)c1 (centres unmarked) [Compound 419]	> 0.1%	> 0.01%	> 100 µg	> 0.1%
CC(C)C(=Nc1ccc(OCC(F)(F)F)c(Cl)c1)OCc1cccc(Oc2ccc(F)cc2)c1 [Compound 420]	0.00075%	> 0.01%	> 100 µg	0.05%
CC(C)C(=Nc1ccc(OCC(F)(F)F)c(Cl)c1)OCc1cccc(Oc2ccc(Cl)cc2)c1 [Compound 421]	0.002%	> 0.01%	> 100 µg	< 0.1%
CC(C)C(=Nc1ccc(OCC(F)(F)F)cc1)OCc1ccc(F)c(Oc2ccccc2)c1 [Compound 422]	0.00075%	> 0.01%	< 100 µg	0.05%
CC(C)C(=Nc1ccc(OCC(F)(F)F)cc1)OCc1cccc(Oc2ccccc2)c1 [Compound 423]	0.002%	> 0.01%	> 100 µg	> 0.1%
CC(C)C(=Nc1ccc(OCC(F)(F)F)c(Cl)c1)OCc1ccc(F)c(Oc2ccccc2)c1 [Compound 424]	0.00038%	> 0.01%	> 100 µg	0.035%
CC(C)C(=Nc1ccc(OCC(F)(F)F)c(Cl)c1)OCc1cccc(Oc2ccccc2)c1 [Compound 425]	0.00075%	> 0.01%	> 100 µg	> 0.1%
CCOc1cccc(N=C(OCc2ccc(F)c(Oc3ccc(F)cc3)c2)C(C)C)c1 [Compound 426]	0.002%	> 0.01%	> 100 µg	> 0.1%
CC(C)C(=Nc1ccc(C(F)(F)F)cc1Cl)OCc1cccc(Oc2ccc(F)cc2)c1 [Compound 427]	< 0.1%	> 0.01%	> 100 µg	> 0.1%
CC(C)C(=Nc1ccc(C(F)(F)F)cc1Cl)OCc1ccc(F)c(Oc2ccccc2)c1 [Compound 428]	0.0017%	> 0.01%	> 100 µg	> 0.1%
CC(C)C(=Nc1ccc(OCC(F)(F)F)c(F)c1)OCc1cccc(Oc2ccc(Cl)cc2)c1 [Compound 429]	0.0017%	> 0.01%	> 100 µg	< 0.1%
C=C(C)C(=Nc1ccc(C(F)(F)F)cc1)OCc1cccc(Oc2ccccc2)c1 [Compound 430]	0.001%	0.004%	< 100 µg	0.032%
CC(C)C(=Nc1ccc(C(F)(F)F)c(Br)c1)OCc1ccc(F)c(Oc2ccccc2)c1 [Compound 434]	0.0017%	0.009%	< 100 µg	> 0.1%
COc1ccc(N=C(OCc2ccc(F)c(Oc3ccccc3)c2)C(C)C)cc1F [Compound 435]	0.002%	> 0.01%	< 100 µg	0.04%
CC(C)C(=Nc1cccc(OC(F)(F)F)c1)OCc1ccc(F)c(Oc2ccc(Cl)cc2)c1 [Compound 436]	0.00075%	> 0.01%	< 100 µg	< 0.1%
CC(C)C(=Nc1cccc(OC(F)(F)F)c1)OCc1ccc(F)c(Oc2ccccc2)c1 [Compound 437]	0.00075%	> 0.01%	< 100 µg	0.025%
CCc1ccc(N=C(OCc2cccc(Oc3ccc(F)cc3)c2)C(C)C)cc1Cl [Compound 438]	0.0009%	> 0.01%	> 100 µg	< 0.1%
CCOc1ccc(N=C(OCc2ccc(F)c(Oc3ccccc3)c2)C(C)C)cc1F [Compound 439]	0.00045%	> 0.01%	> 100 µg	> 0.1%
CCCc1ccc(N=C(OCc2ccc(F)c(Oc3ccc(F)cc3)c2)C(C)C)cc1 [Compound 440]	0.002%	> 0.01%	> 100 µg	< 0.1%
CC(C)C(=Nc1ccc(Cl)c(F)c1)OCc1ccc(F)c(Oc2ccc(F)cc2)c1 [Compound 441]	0.000025%	0.006%	< 100 µg	0.016%
